The text below walks through data of patent publication US20110160052A1, “Active Compound Combinations” (Bayer CropScience AG, priority 2007, published 2011).

Holding throughout (format): in vivo
Test [1] relates to Phaedon cochleariae. The test can be described thus: Phaedon cochleariae test (sprayed cabbage leaves). Conditions: mortality of beetle larvae on cabbage leaves. As to the method:
(§1) Solvent: 7 parts by weight of dimethylformamide Emulsifier: 2 parts by weight of alkylaryl polyglycolether
(§2) To produce a suitable preparation of active compound, 1 part by weight of active compound is mixed with the stated amount of solvent and emulsifier, and the concentrate is diluted with emulsifier-containing water to the desired concentration.
Cabbage leaves (Brassica oleracea) are treated by being sprayed with the preparation of the active compound at the desired concentration and are infested with larvae of the mustard beetle (Phaedon cochleariae) as long as the leaves are still moist.
After the specified period of time, the mortality in % is determined. 100% means that all the beetle larvae have been killed; 0% means that none of the beetle larvae have been killed.

Test [2] concerns Nilaparvata lugens. Put plainly: Nilaparvata lugens test (sprayed rice plants). Conditions: mortality of hopper larvae on rice. The procedure:
as §1, §2
Rice plants (Oryza sativa) are treated by being sprayed with the preparation of the active compound at the desired concentration and are infested with larvae of the Brown plant hopper (Nilaparvata lugens) as long as the leaves are still moist.
After the specified period of time, the mortality in % is determined. 100% means that all the hopper larvae have been killed; 0% means that none of the hopper larvae have been killed.

Test [3] has as its system Spodoptera frugiperda. The test can be described thus: Spodoptera frugiperda test (sprayed cabbage leaves). As to conditions: mortality of caterpillars on cabbage leaves. As to the method: as §1, §2
Cabbage leaves (Brassica oleracea) are treated by being sprayed into the preparation of the active compound of the desired concentration and are infested with larvae of the fall army worm (Spodoptera frugiperda) as long as the leaves are still moist.
After the specified period of time, the mortality in % is determined. 100% means that all the caterpillars have been killed; 0% means that none of the caterpillars have been killed.

For test [4], the system named is Blumeria graminis f sp. hordei. Put plainly: Blumeria test (barley)/SAR 5d. As to conditions: 1000 ppm, inoculated 5 days after spraying, evaluated 7 days after inoculation. As to the method: Solvent: 50 parts by weight of n,n-dimethylacetamid Emulsifier: 1 part by weight of alkylaryl polyglycol ether
To produce a suitable preparation of active compound, 1 part by weight of active compound or active compound combination is mixed with the stated amounts of solvent and emulsifier, and the concentrate is diluted with water to the desired concentration.
To test for systemic activated resistance, young plants are sprayed with the preparation of active compound or active compound combination at the stated rate of application. After the spray coating has dried on, the plants are placed in a greenhouse at a temperature of approximately 18° C. and a relative atmospheric humidity of approximately 80%.
5 days after spraying, the plants are dusted with spores of Blumeria graminis f sp. hordei. The plants then remain in a greenhouse at a temperature of approximately 18° C. and a relative atmospheric humidity of approximately 80% to promote the development of mildew pustules.
The test is evaluated 7 days after the inoculation, 1. and 2. leaf separated. 0% means an efficacy with corresponds to that of the control while an efficacy of 100% means that no disease is observed.

Take `N#Cc1nn(-c2c(Cl)cc(C(F)(F)F)cc2Cl)c(N)c1[S+]([O-])C(F)(F)F` (stereo not shown) [Fipronil, fipronil]: the “Efficacy in % after 6d” value was 0% in test [1] (0.032 ppm) and 65% in test [3] (8 ppm). In addition, the “Efficacy in % after 3d” value worked out at 0% in test [2] (0.032 ppm) and 70% in test [2] (20 ppm).
On to `N#C/N=C1\SCCN1Cc1ccc(Cl)nc1` [Thiacloprid, thiacloprid], for which the “Efficacy in % after 3d” value in test [2] (4 ppm) came to 0%.
Take `N#Cc1ccccc1NC(=O)c1snc(Cl)c1Cl` [Isotianil, 3,4-dichloro-N-(2-cyanophenyl)-5-isothiazolecarboxamide]: the “Efficacy in % after 6d” value in test [3] (200 ppm) is on record as 0%.
On to `CC[S+]([O-])c1c(C#N)nn(-c2c(Cl)cc(C(F)(F)F)cc2Cl)c1N` (stereo not shown) [Ethiprole, ethiprole], for which the Efficacy in % in test [4] (1st leaf) and in test [4] (2nd leaf) was 22% each time. In addition, the “Efficacy in % after 3d” value in test [2] (0.16 ppm) came out at 0%.
Regarding `CN/C(=N\[N+](=O)[O-])NCc1cnc(Cl)s1` [Clothianidin, clothianidin], the “Efficacy in % after 6d” value in test [1] (0.16 ppm) amounted to 0%; in test [3] (8 ppm), 25%. The “Efficacy in % after 3d” value in test [2] (0.032 ppm) is 55%; in test [2] (0.8 ppm) it was 70%.
